From ChEMBL document CHEMBL1150848, “Radiosumin B, an unusual dipeptide from the cyanobacterium Microcystis aeruginosa” (J Nat Prod, 2001)
Active and inactive are the calls of the source. The rule behind the calls is not given here.

What was measured:
[1] = biological target: Plasminogen (Homo sapiens) (UniProt P00747); test: Inhibition of plasmin
[2] = Inhibition of trypsin

Plasminogen (Homo sapiens), sequence (P00747 97-580 limits assumed): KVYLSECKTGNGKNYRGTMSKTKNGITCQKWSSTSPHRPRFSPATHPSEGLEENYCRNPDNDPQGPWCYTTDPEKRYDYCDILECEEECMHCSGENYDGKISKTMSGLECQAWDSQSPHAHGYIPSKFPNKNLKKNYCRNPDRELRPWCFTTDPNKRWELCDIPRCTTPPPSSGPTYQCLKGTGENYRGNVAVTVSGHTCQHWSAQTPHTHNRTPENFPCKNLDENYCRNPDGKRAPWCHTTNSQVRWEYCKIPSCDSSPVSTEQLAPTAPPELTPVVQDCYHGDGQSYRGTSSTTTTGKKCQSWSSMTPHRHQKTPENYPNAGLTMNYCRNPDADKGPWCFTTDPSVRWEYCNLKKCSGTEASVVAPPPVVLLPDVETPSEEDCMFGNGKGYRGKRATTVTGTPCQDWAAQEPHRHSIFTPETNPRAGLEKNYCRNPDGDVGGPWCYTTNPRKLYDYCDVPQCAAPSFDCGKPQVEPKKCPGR
Plasminogen (Homo sapiens), sequence (P00747 581-810 limits assumed): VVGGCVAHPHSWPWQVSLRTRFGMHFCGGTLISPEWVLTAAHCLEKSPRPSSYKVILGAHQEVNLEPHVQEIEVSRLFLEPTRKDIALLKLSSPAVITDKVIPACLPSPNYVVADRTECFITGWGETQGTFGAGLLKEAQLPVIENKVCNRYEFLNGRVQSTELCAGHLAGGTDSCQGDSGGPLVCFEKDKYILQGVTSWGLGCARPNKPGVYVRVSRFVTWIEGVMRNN

For CN[C@H]1C=C/C(=C/[C@H](NC(C)=O)C(=O)N[C@@H](/C=C2/C=C[C@H](NC(C)=O)CC2)C(=O)O)CC1, the Activity [1] was “Active” and the Activity [2] was “Active”.
